Measured values as given in US8148349B2, “Nucleoside cyclic phosphoramidates for the treatment of RNA-dependent RNA viral infection” (Istituto di Ricerche di Biologia Molecolare P. Angeletti …, priority 2006, dated 2012).

Tested on: subgenomic HCV Replicon in HuH-7 cells
Test: Assay for Inhibition of HCV RNA Replication (Replicon assay)
Type: cell-based, Hepatitis C Virus
Details: Hepatitis C virus, Huh-7, read-out: Replicon Assay EC50
Procedure: A. Assay for Inhibition of HCV RNA Replication:
The compounds of the present invention are evaluated for their ability to affect the replication of Hepatitis C Virus RNA in cultured hepatoma (HuH-7) cells containing a subgenomic HCV Replicon. The details of the assay are described below. This Replicon assay is a modification of that described in V. Lohmann, F. Korner, J-O. Koch, U. Herian, L. Theilmann, and R. Bartenschlager, “Replication of a Sub-genomic Hepatitis C Virus RNAs in a Hepatoma Cell Line,” Science 285:110 (1999).
The assay is an in situ Ribonuclease protection, Scintillation Proximity based-plate assay (SPA). 10,000-40,000 cells are plated in 100-200 μL of media containing 0.8 mg/mL G418 in 96-well cytostar plates (Amersham). Compounds are added to cells at various concentrations up to 100 μM in 1% DMSO at time 0 to 18 h and then cultured for 24-96 h. Cells are fixed (20 min, 10% formalin), permeabilized (20 min, 0.25% Triton X-100/PBS) and hybridized (overnight, 50° C.) with a single-stranded ^33P RNA probe complementary to the (+) strand NS5B (or other genes) contained in the RNA viral genome. Cells are washed, treated with RNAse, washed, heated to 65° C. and counted in a Top-Count. Inhibition of replication is read as a decrease in counts per minute (cpm).
Human HuH-7 hepatoma cells, which are selected to contain a subgenomic replicon, carry a cytoplasmic RNA consisting of an HCV 5′ non-translated region (NTR), a neomycin selectable marker, an EMCV IRES (internal ribosome entry site), and HCV non-structural proteins NS3 through NS5B, followed by the 3′ NTR.

| Molecule | EC50 |
| --- | --- |
| CCCCOC(=O)[C@H](C)NP1(=O)OC[C@H]2O[C@@H](n3ccc(N)nc3=O)[C@](C)(O)[C@@H]2O1 (single isomer, unassigned) [Example 1] | 15 µM |
| CCOC(=O)[C@H](C)NP1(=O)OC[C@H]2O[C@@H](n3ccc(N)nc3=O)[C@](C)(O)[C@@H]2O1 (single isomer, unassigned) [Example 2] | 4 µM |
| C[C@H](NP1(=O)OC[C@H]2O[C@@H](n3ccc(N)nc3=O)[C@](C)(O)[C@@H]2O1)C(=O)OC(C)(C)C (stereo partly drawn) [Example 4, tert-butyl N-[(4aR,6R,7R,7aR)-6-(4-amino-2-oxopyrimidin-1(2H)-yl)-7-hydroxy-7-methyl-2-oxidotetrahydro-4H-furo[3,2d][1,3,2]dioxaphosphinin-2-yl]-L-alaninate] | > 20 µM |
| CCCCOC(=O)[C@H](C)NP1(=O)OC[C@H]2O[C@@H](n3ccc(N)nc3=O)[C@](C)(O)[C@@H]2O1 (stereo partly drawn) [Example 5, n-butyl N-[(4aR,6R,7R,7aR)-6-(4-amino-2-oxopyrimidin-1(2H)-yl)-7-hydroxy-7-methyl-2-oxidotetrahydro-4H-furo[3,2d][1,3,2]dioxaphosphinin-2-yl]-L-alaninate] | 15 µM |
| CCOC(=O)[C@H](CC)NP1(=O)OC[C@H]2O[C@@H](n3ccc(N)nc3=O)[C@](C)(O)[C@@H]2O1 (stereo partly drawn) [Example 6, ethyl (2S)-2-{[(4aR,6R,7R,7aR)-6-(4-amino-2-oxopyrimidin-1(2H)-yl)-7-hydroxy-7-methyl-2-oxidotetrahydro-4H-furo[3,2d][1,3,2]dioxaphosphinin-2-yl]amino}butanoate] | 6 µM |
| CCC[C@H](NP1(=O)OC[C@H]2O[C@@H](n3ccc(N)nc3=O)[C@](C)(O)[C@@H]2O1)C(=O)OCC (stereo partly drawn) [Example 8, ethyl N-[(4aR,6R,7R,7aR)-6-(4-amino-2-oxopyrimidin-1(2H)-yl)-7-hydroxy-7-methyl-2-oxidotetrahydro-4H-furo[3,2-d][1,3,2]dioxaphosphinin-2-yl]-L-norvalinate] | > 20 µM |
| CCOC(=O)[C@H](C)NP1(=O)OC[C@H]2O[C@@H](n3ccc(N)nc3=O)[C@](C)(O)[C@@H]2O1 (stereo partly drawn) [Example 10, ethyl N-[(4aR,6R,7R,7aR)-6-(4-amino-2-oxopyrimidin-1(2H)-yl)-7-hydroxy-7-methyl-2oxidotetrahydro-4H-furo[3,2-d][1,3,2]-dioxaphosphinin-2-yl]-L-alaninate] | 4 µM |

Same assay, conditions: Hepatitis C virus; HuH-7 cells containing a subgenomic HCV Replicon; read-out: Replicon Assay EC50

| Molecule | EC50 |
| --- | --- |
| CCCCCCCOC(=O)[C@H](C)NP1(=O)OC[C@H]2O[C@@H](n3ccc(N)nc3=O)[C@](C)(O)[C@@H]2O1 (single isomer, unassigned) [Example 3] | 5 µM |
| CCOC(=O)[C@H](CC(C)C)NP1(=O)OC[C@H]2O[C@@H](n3ccc(N)nc3=O)[C@](C)(O)[C@@H]2O1 (stereo partly drawn) [Example 7, ethyl N-[(4aR,6R,7R,7aR)-6-(4-amino-2-oxopyrimidin-1(2H)-yl)-7-hydroxy-7-methyl-2-oxidotetrahydro-4H-furo[3,2-d][1,3,2]dioxaphosphinin-2-yl]-L-leucinate] | 50 µM |
| C[C@H](NP1(=O)OC[C@H]2O[C@@H](n3ccc(N)nc3=O)[C@](C)(O)[C@@H]2O1)C(=O)OC1CCCC1 (stereo partly drawn) [Example 9, cyclopentyl N-[(4aR,6R,7R,7aR)-6-(4-amino-2-oxopyrimidin-1(2H)-yl)-7-hydroxy-7-methyl-2-oxidotetrahydro-4H-furo[3,2d][1,3,2]-dioxaphosphinin-2-yl]-L-alaninate] | > 20 µM |
| CCCCCCCOC(=O)[C@H](C)NP1(=O)OC[C@H]2O[C@@H](n3ccc(N)nc3=O)[C@](C)(O)[C@@H]2O1 (stereo partly drawn) [Example 11, n-heptyl N-[(4aR,6R,7R,7aR)-6-(4-amino-2-oxopyrimidin-1(2H)-yl)-7-hydroxy-7-methyl-2oxidotetrahydro-4Hfuro[3,2d][1,3,2]-dioxaphosphinin-2-yl]-L-alaninate] | 10 µM |
| C[C@H](NP1(=O)OC[C@H]2O[C@@H](n3ccc(N)nc3=O)[C@](C)(O)[C@@H]2O1)C(=O)OC1CCCCC1 (stereo partly drawn) [Example 12, cyclohexyl N-[(4aR,6R,7R,7aR)-6-(4-amino-2-oxopyrimidin-1(2H)-yl)-7-hydroxy-7-methyl-2oxidotetrahydro-4Hfuro[3,2d][1,3,2]dioxaphosphinin-2-yl]-L-alaninate] | > 20 µM |
| CC(C)CCOC(=O)[C@H](C)NP1(=O)OC[C@H]2O[C@@H](n3ccc(N)nc3=O)[C@](C)(O)[C@@H]2O1 (stereo partly drawn) [Example 13, isopentyl N-[(4aR,6R,7R,7aR)-6-(4-amino-2-oxopyrimidin-1(2H)-yl)-7-hydroxy-7-methyl-2-oxidotetrahydro-4H-furo[3,2d][1,3,2]-dioxaphosphinin-2-yl]-L-alaninate] | > 20 µM |
| CCC(CC)COC(=O)[C@H](C)NP1(=O)OC[C@H]2O[C@@H](n3ccc(N)nc3=O)[C@](C)(O)[C@@H]2O1 (stereo partly drawn) [Example 15, 2-ethylbutyl N-[(4aR,6R,7R,7aR)-6-(4-amino-2-oxopyrimidin-1(2H)-yl)-7-hydroxy-7-methyl-2-oxidotetrahydro-4H-furo[3,2-d][1,3,2]dioxaphosphinin-2-yl]-L-alaninate] | > 20 µM |
| CCCC(CCC)COC(=O)[C@H](C)NP1(=O)OC[C@H]2O[C@@H](n3ccc(N)nc3=O)[C@](C)(O)[C@@H]2O1 (stereo partly drawn) [Example 16, 2-propylpentyl N-[(4aR,6R,7R,7aR)-6-(4-amino-2-oxopyrimidin-1(2H)-yl)-7-hydroxy-7-methyl-2-oxidotetrahydro-4H-furo[3,2-d][1,3,2]dioxaphosphinin-2-yl]-L-alaninate] | 14 µM |
| CCCCCCOCCOC(=O)[C@H](C)NP1(=O)OC[C@H]2O[C@@H](n3ccc(N)nc3=O)[C@](C)(O)[C@@H]2O1 (stereo partly drawn) [Example 17, 2-(hexyloxy)ethyl N-[(4aR,6R,7R,7aR)-6-(4-amino-2-oxopyrimidin-1(2H)-yl)-7-hydroxy-7-methyl-2-oxidotetrahydro-4H-furo[3,2-d][1,3,2]dioxaphosphinin-2-yl]-L-alaninate] | 15 µM |
| C[C@H](NP1(=O)OC[C@H]2O[C@@H](n3ccc(N)nc3=O)[C@](C)(O)[C@@H]2O1)C(=O)OC1CCCCCC1 (stereo partly drawn) [Example 18, cycloheptyl N-[(4aR,6R,7R,7aR)-6-(4-amino-2-oxopyrimidin-1(2H)-yl)-7-hydroxy-7-methyl-2-oxidotetrahydro-4H-furo[3,2-d][1,3,2]dioxaphosphinin-2-yl]-L-alaninate] | > 10 µM |
| C[C@H](NP1(=O)OC[C@H]2O[C@@H](n3ccc(N)nc3=O)[C@](C)(O)[C@@H]2O1)C(=O)OCCCC1CCCCC1 (stereo partly drawn) [Example 19, 3-cyclohexylpropyl N-[(4aR,6R,7R,7aR)-6-(4-amino-2-oxopyrimidin-1(2H)-yl)-7-hydroxy-7-methyl-2-oxidotetrahydro-4H-furo[3,2-d][1,3,2]dioxaphosphinin-2-yl]-L-alaninate] | 10 µM |
| CCCC(CCC)C(=O)Nc1ccn([C@@H]2O[C@@H]3COP(=O)(N[C@@H](CC)C(=O)OCC)O[C@H]3[C@@]2(C)O)c(=O)n1 (stereo partly drawn) [Example 20, Ethyl (2S)-2-({(4aR,6R,7R,7aR)-7-hydroxy-7-methyl-2-oxido-6-[2-oxo-4-[(2-propylpentanoyl)amino]pyrimidin-1(2H)-yl]tetrahydro-4H-furo[3,2-d][1,3,2]dioxaphosphinin-2-yl}amino)butanoate] | > 20 µM |
| CCCC(CCC)C(=O)Nc1ccn([C@@H]2O[C@@H]3COP(=O)(N[C@@H](C)C(=O)OCC)O[C@H]3[C@@]2(C)O)c(=O)n1 (stereo partly drawn) [Example 21, ethyl N-{(4aR,6R,7R,7aR)-7-hydroxy-7-methyl-2-oxido-6-[2-oxo-4-[(2-propylpentanoyl)amino]pyrimidin-1(2H)-yl]tetrahydro-4H-furo[3,2-d][1,3,2]dioxaphosphinin-2-yl}-L-alaninate] | > 20 µM |
| CCCCCCCOC(=O)[C@H](C)NP1(=O)OC[C@H]2O[C@@H](n3ccc(NC(=O)OCCCN(C)C)nc3=O)[C@](C)(O)[C@@H]2O1 (stereo partly drawn) [Example 23, n-heptyl N-{(4aR,6R,7R,7aR)-6-[4-({[3-(dimethylamino)propoxy]carbonyl}amino)-2-oxopyrimidin-1(2H)-yl]-7-hydroxy-7-methyl-2-oxidotetrahydro-4H-furo[3,2-d][1,3,2]dioxaphosphinin-2-yl}-L-alaninate] | > 20 µM |

Same assay, conditions: HuH-7 cells containing a subgenomic HCV Replicon; read-out: Replicon Assay EC50

| Molecule | EC50 |
| --- | --- |
| COCCCOC(=O)[C@H](C)NP1(=O)OC[C@H]2O[C@@H](n3ccc(N)nc3=O)[C@](C)(O)[C@@H]2O1 (stereo partly drawn) [Example 14, 3-methoxypropyl N[(4aR,6R,7R,7aR)-6-(4-amino-2-oxopyrimidin-1(2H)-yl)-7-hydroxy-7-methyl-2-oxidotetrahydro-4H-furo[3,2-d][1,3,2]dioxaphosphinin-2-yl]-L-alaninate] | 28 µM |
| n-heptyl N-{(4aR,6R,7R,7aR)-7-hydroxy-7-methyl-6-[4-[(1-methylene-2-propylpentyl)amino]-2-oxopyrimidin-1(2H)-yl]-2-oxidotetrahydro-4H-furo[3,2-d][1,3,2]dioxaphosphinin-2-yl}-L-alaninate [Example 22] | 12 µM |
